Experimental data taken from ChEMBL document CHEMBL5385848, “Discovery of novel hydroxyamidine based indoleamine 2,3-dioxygenase 1 (IDO1) and thioredoxin reductase 1 (TrxR1) dual inhibitors” (Eur J Med Chem, 2023).
Calls of active or inactive are those of the source. The rule behind the calls is not given here.

Experiments:
[1] = biological target: T1, Thioredoxin reductase 3 (Homo sapiens, UniProt Q86VQ6); experiment: Inhibition of TrxR3 (unknown origin) incubated for 1 hr in presence of NADPH by microplate reader analysis
T1 sequence (Q86VQ6 whole entry): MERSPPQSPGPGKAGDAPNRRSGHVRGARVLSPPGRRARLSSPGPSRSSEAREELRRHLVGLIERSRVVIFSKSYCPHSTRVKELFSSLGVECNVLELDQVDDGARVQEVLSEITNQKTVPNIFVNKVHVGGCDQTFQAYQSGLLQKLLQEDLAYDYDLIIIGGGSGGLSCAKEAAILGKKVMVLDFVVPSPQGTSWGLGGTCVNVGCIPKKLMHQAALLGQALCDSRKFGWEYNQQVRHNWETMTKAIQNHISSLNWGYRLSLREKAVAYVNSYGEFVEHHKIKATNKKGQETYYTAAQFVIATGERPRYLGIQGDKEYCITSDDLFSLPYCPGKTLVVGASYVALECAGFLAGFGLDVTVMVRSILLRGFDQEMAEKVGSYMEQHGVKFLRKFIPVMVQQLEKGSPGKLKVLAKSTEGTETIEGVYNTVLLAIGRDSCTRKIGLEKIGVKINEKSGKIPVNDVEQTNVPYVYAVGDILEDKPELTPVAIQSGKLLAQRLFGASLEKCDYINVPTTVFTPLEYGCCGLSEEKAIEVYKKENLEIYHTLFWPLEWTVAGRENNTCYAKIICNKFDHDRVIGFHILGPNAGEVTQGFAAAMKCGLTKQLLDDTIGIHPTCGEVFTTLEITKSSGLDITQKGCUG

[2] = system: HCT-116; experiment: Induction of apoptosis in human HCT-116 cells assessed as caspase-7 activation incubated for 24 hrs; type: functional, cell-based; conditions: dose 2.5-10 µM
[3] = system: HCT-116; experiment: Induction of cell cycle arrest in human HCT-116 cells assessed as G1/S phase arrest at 2.5 to 10 uM incubated for 24 hrs by PI staining based flow cytometry analysis; type: functional; conditions: dose 2.5-10 µM
[4] = Cytotoxicity against human HeLa cells incubated for 48 hrs by CCK-8 assay; type: toxicity, cell-based
[5] = Toxicity in athymic BALB/c mouse xenografted with human HCT-116 cells assessed as change in heart morphology at 15 to 60 mg/kg, ig administered daily for 28 days and measured every 4 days; type: organism-based; conditions: in vivo, po, 672 h, dose 15-60 mg/kg, time 28 day
[6] = system: IDO1; experiment: Selectivity ratio of IC50 for cytotoxicity against human HCT-116 cells to EC50 for inhibition of IDO1 in human HCT-116 cells; type: cell-based; conditions: read-out: Ratio IC50/EC50
[7] = system: HCT-116; experiment: Antiproliferative activity against human HCT-116 cells assessed as cell growth inhibition incubated for 48 hrs by CCK-8 assay; type: functional, cell-based; conditions: HCT-116, 48 h
[8] = system: HCT-116; experiment: Cytotoxicity against TrxR1 knockdown human HCT-116 cells incubated for 24 hrs by CCK-8 assay (reference value: 3.08 +/- 0.55 uM); type: functional, cell-based; conditions: HCT-116, 24 h
[9] = system: HCT-116; experiment: Induction of apoptosis in human HCT-116 cells assessed as apoptotic rate at 5 uM pretreated with NAC incubated for 24 hrs by Annexin-V/PI staining based flow cytometry analysis (reference value: 9.8 +/- 1.59%); type: functional
[10] = system: HCT-116; experiment: Induction of apoptosis in human HCT-116 cells assessed as caspase-3 activation incubated for 24 hrs; type: functional, cell-based; conditions: dose 2.5-10 µM
[11] = system: CT26; experiment: Antitumor activity against mouse CT26 cells implanted in […] BALB/c mouse assessed as increase in CD8 T lymphocytes at 15 to 60 mg/kg, ig administered daily for 28 days and measured every 4 days; type: functional, organism-based; conditions: dose 15-60 mg/kg, time 28.0 day
[12] = biological target: T2, Thioredoxin reductase 1, cytoplasmic (Mus musculus, UniProt Q9JMH6); experiment: Inhibition of TrxR1 in mouse CT26 cells incubated for 24 hrs; type: cell-based
T2 sequence (Q9JMH6 whole entry): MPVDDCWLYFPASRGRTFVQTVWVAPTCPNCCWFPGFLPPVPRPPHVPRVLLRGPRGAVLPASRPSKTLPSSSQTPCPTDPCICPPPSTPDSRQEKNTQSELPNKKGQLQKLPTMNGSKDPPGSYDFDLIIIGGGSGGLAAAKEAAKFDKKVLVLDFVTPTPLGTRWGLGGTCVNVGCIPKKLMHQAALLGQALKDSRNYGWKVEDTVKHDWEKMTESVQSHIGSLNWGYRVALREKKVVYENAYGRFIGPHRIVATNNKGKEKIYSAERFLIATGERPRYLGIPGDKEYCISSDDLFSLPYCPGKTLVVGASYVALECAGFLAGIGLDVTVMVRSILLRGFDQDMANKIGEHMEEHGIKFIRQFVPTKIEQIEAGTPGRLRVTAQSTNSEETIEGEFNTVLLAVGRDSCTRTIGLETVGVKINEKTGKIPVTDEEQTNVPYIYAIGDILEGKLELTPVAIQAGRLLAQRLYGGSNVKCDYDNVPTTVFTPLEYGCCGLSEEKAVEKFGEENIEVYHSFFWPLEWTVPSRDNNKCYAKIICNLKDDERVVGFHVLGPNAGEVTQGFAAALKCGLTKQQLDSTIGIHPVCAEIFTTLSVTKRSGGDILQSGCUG

[13] = system: HCT-116; experiment: Induction of ROS generation in human HCT-116 cells at 10 uM incubated for 4 hrs by DCFH-DA staining based flow cytometry analysis; type: functional, cell-based
[14] = system: HCT-116; experiment: Induction of apoptosis in human HCT-116 cells assessed as apoptotic rate at 2.5 uM pretreated with NAC incubated for 24 hrs by Annexin-V/PI staining based flow cytometry analysis (reference value: 9.8 +/- 1.59%); type: functional
[15] = system: CT26; experiment: Antitumor activity against mouse CT26 cells implanted in athymic nude BALB/c mouse assessed as reduction in CD4+CD25+Foxp3+ lymphocytes at 15 to 60 mg/kg, ig administered daily for 28 days and measured every 4 days by immunofluorescence analysis; type: functional, organism-based; conditions: dose 15-60 mg/kg, time 28.0 day
[16] = system: HCT-116; experiment: Induction of ROS generation in human HCT-116 cells incubated for 4 hrs by DCFH-DA staining based flow cytometry analysis; type: functional, cell-based; conditions: dose 2.5-10 µM
[17] = system: HCT-116; experiment: Induction of apoptosis in human HCT-116 cells assessed as apoptotic rate at 2.5 uM incubated for 24 hrs by Annexin-V/PI staining based flow cytometry analysis; type: functional
[18] = system: HCT-116; experiment: Antitumor activity against human HCT-116 cells xenografted in athymic nude BALB/c mouse assessed as reduction in mitosis of tumor cells at 15 to 60 mg/kg, ig administered daily for 28 days and measured every 4 days; type: functional, organism-based; conditions: dose 15-60 mg/kg, time 28.0 day
[19] = system: CT26; experiment: Antitumor activity against mouse CT26 cells implanted in […] BALB/c mouse assessed as increase in CD4 Th lymphocytes at 15 to 60 mg/kg, ig administered daily for 28 days and measured every 4 days; type: functional, organism-based; conditions: dose 15-60 mg/kg, time 28.0 day
[20] = system: CT26; experiment: Antitumor activity against ig dosed mouse CT26 cells implanted in […] BALB/c mouse assessed as reduction in tumor weight administered daily for 28 days and measured every 4 days; type: functional, organism-based; conditions: dose 15-60 mg/kg, time 28.0 day
[21] = system: HCT-116; experiment: Antitumor activity against human HCT-116 cells xenografted in athymic nude BALB/c mouse assessed as increase in necrosis of tumor cells at 15 to 60 mg/kg, ig administered daily for 28 days and measured every 4 days; type: functional, organism-based; conditions: dose 15-60 mg/kg, time 28.0 day

- IC50 [1]: > 500 µM
- IC50 [7]: 3.44 µM
- EC50 [12]: 25.7 µM
Compound: O=C(Cc1ccc(O)cc1)Nc1nnc(CCCNc2nonc2/C(=N\O)Nc2ccc(F)c(Br)c2)s1
- Activity [2]: Dose-Dependent Effect
- Activity [3]: Active
- IC50 at 48 h [4]: 10.2 µM
- Activity [5]: Non-Toxic
- selectivity ratio [6]: 101
- IC50 [8]: 1.52 µM
- Activity [9]: 11.98%
- Activity [10]: Dose-Dependent Effect
- Activity [11]: Active
- Activity [13]: Active
- Activity [14]: 10.37%
- Activity [15]: Active
- Activity [16]: Dose-Dependent Effect
- Activity [17]: 22.57%
- Activity [18]: Active
- Activity [19]: Active
- Activity [20]: Dose-Dependent Effect
- Activity [21]: Active
